Data: US11919902B2, “Aryl-bipyridine amine derivatives as phosphatidylinositol phosphate kinase inhibitors” (HiberCell, Inc., priority 2017, dated 2024)

Experiments:
[1] = target: T1, PIP4K2A (full length protein, SignalChem) (Homo sapiens, UniProt P48426); test: Kinase Assay PIP4K2 A (Sprint); ADP-Glo biochemical assay; conditions: Table 2; compounds listed under IC50 range headings
T1 construct: 4 nM PIP4K2A (full length protein, SignalChem); purchased SignalChem
T1 sequence (P48426 1-406): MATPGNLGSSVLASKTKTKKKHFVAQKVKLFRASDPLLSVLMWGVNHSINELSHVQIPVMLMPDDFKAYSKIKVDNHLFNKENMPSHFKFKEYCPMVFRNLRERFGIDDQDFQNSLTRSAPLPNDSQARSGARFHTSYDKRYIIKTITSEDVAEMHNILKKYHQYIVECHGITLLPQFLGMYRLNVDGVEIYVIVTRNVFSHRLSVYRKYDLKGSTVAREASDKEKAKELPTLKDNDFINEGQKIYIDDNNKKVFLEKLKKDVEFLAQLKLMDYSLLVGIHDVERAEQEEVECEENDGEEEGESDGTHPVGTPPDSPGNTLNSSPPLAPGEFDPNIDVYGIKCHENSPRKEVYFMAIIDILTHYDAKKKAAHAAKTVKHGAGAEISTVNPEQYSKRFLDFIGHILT
In short: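 Compounds (10-point, 3-fold dilutions) were pre-incubated 15 min at RT with an enzyme/substrate mix of 4 nM full-length PIP4K2A and 100 μM PI(5)P diC8 in 20 mM MOPS pH 7.2, 25 mM MgCl2, 0.005% Tween 20. A 60 μM ATP solution was added, reaction 1 h RT; ADP read by ADP-Glo luminescence, IC50 fitted from % inhibition vs DMSO.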

GST tagged PIP4KtypeIIA = target: T2, GST tagged PIP4KtypeIIA (Homo sapiens, UniProt P48426); test: ADP-glo kinase assay PIP4K 2A (PIP4KtypeIIA inhibition assay); type: biochemical; conditions: Table 3; compounds listed under IC50 range headings; 10 uM ATP, 0.5 nM PIP4KIIA
T2 construct: made in house; host or cells: E. coli
T2 sequence (P48426 1-406): T1 sequence (P48426 1-406)
In short: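 E. coli-expressed GST-PIP4KtypeIIA (0.5 nM final) was preincubated 1 h at 27 °C with compound (up to 4.8 μM, 5% DMSO) in PI5P/DOPE lipid in 50 mM HEPES pH 7.3 with 10 mM MgCl2. The reaction was started with 10 μM ATP (final) and run 1 h. ADP was read by ADP-Glo luminescence via a calibration curve, and IC50 was taken from % residual activity.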

GST tagged PIP4KtypeIIB = target: T3, GST tagged PIP4KtypeIIB (Homo sapiens, UniProt P78356); test: Trans-FI P kinase assay PIP4K2B (PIP4KtypeIIB inhibition assay); type: biochemical; conditions: Table 4; compounds listed under IC50 range headings; 100 uM GTP, 5 nM PIP4KIIB; read-out: Trans-FI P kinase assays: PIP4K2B IC50
T3 construct: made in house; host or cells: E. coli
T3 sequence (P78356 1-416): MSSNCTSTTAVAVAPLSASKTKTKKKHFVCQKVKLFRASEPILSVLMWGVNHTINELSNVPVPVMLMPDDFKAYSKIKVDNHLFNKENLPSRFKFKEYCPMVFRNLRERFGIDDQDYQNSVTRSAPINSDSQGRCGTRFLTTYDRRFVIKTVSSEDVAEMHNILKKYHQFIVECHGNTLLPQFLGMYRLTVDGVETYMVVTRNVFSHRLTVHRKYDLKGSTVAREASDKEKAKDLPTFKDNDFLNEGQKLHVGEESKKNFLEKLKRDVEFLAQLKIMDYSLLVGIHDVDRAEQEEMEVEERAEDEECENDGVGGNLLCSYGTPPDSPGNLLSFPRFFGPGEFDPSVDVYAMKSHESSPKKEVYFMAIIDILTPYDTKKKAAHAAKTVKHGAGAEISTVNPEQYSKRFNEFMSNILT
In short: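 Purified GST-PIP4KIIB (5 nM final), 1 h preincubation with compound at 27 C, then 2 h reaction with 100 uM GTP and 80 uM PI5P plus DOPE carrier lipid in pH 7.3 HEPES/MgCl2/Triton buffer with 5% DMSO. GDP read by Transcreener FI fluorescence against a calibration curve; IC50 from % no-inhibitor activity vs log concentration.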

Compound | IC50 [1] | IC50 (GST tagged PIP4KtypeIIA) | IC50 (GST tagged PIP4KtypeIIB)
CN(C)C(=O)c1ccc(-c2cncc(-c3ccncc3)c2)cc1 [Example 1, 4-([3,4′-bipyridin]-5-yl)-N,N-dimethylbenzamide] | < 5000 nM | > 5000 nM | > 5000 nM
CN(C)C(=O)c1ccc(-c2cncc(-c3ccnc4[nH]ccc34)c2)cc1 [Example 2, 4-(5-(1H-pyrrolo[2,3-b]pyridin-4-yl)pyridin-3-yl)-N,N-dimethylbenzamide] | 100 to 1000 nM | 100 to 1000 nM | 100 to 1000 nM
CN(C)C(=O)c1ccc(-c2cncc(-c3cnc4[nH]ccc4c3)c2)cc1 [Example 4, 4-(5-(1H-pyrrolo[2,3-b]pyridin-5-yl)pyridin-3-yl)-N,N-dimethylbenzamide] | 100 to 1000 nM | 2500 to 5000 nM | 2500 to 5000 nM
CN(C)C(=O)c1ccc(-c2cncc(-c3ccnc4c3ccn4C)c2)cc1 [Example 5, N,N-dimethyl-4-(5-(1-methyl-1H-pyrrolo[2,3-b]pyridin-4-yl)pyridin-3-yl)benzamide] | 100 to 1000 nM | 2500 to 5000 nM | 1000 to 2500 nM
CN(C)C(=O)c1ccc(-c2cncc(-c3cnc4c(ccn4C)c3)c2)cc1 [Example 6, N,N-dimethyl-4-(5-(1-methyl-1H-pyrrolo[2,3-b]pyridin-5-yl)pyridin-3-yl)benzamide] | 1000 to 2500 nM | > 5000 nM | > 5000 nM
CN(C)C(=O)c1ccc(-c2cncc(-c3ccnc4ccncc34)c2)cc1 [Example 7, 4-(5-(1,6-naphthyridin-4-yl)pyridin-3-yl)-N,N-dimethylbenzamide] | 2500 to 5000 nM | > 5000 nM | > 5000 nM
CN(C)C(=O)c1ccc(-c2cncc(-c3ccnc(C(=O)N(C)C)c3)c2)cc1 [Example 9, 5-(4-(dimethylcarbamoyl)phenyl)-N,N-dimethyl-[3,4′-bipyridine]-2′-carboxamide] | < 5000 nM | > 5000 nM | > 5000 nM
CN(C)C(=O)c1ccc(-c2cncc(-c3c[nH]c4ncccc34)c2)cc1 [Example 10, 4-(5-(1H-pyrrolo[2,3-b]pyridin-3-yl)pyridin-3-yl)-N,N-dimethylbenzamide] | 100 to 1000 nM | 100 to 1000 nM | 100 to 1000 nM
Cc1[nH]c2ncccc2c1-c1cncc(-c2ccc(C(=O)N(C)C)cc2)c1 [Example 11, N,N-dimethyl-4-(5-(2-methyl-1H-pyrrolo[2,3-b]pyridin-3-yl)pyridin-3-yl)benzamide] | 100 to 1000 nM | 100 to 1000 nM | 100 to 1000 nM
CN(C)C(=O)c1ccc(-c2cncc(-c3c[nH]c4ncc(Cl)cc34)c2)cc1 [Example 12, 4-(5-(5-chloro-1H-pyrrolo[2,3-b]pyridin-3-yl)pyridin-3-yl)-N,N-dimethylbenzamide] | 5 to 100 nM | 100 to 1000 nM | 100 to 1000 nM
CNC(=O)c1cc2c(-c3cncc(-c4ccc(C(=O)N(C)C)cc4)c3)ccnc2n1C [Example 13, 4-(5-(4-(dimethylcarbamoyl)phenyl)pyridin-3-yl)-N,1-dimethyl-1H-pyrrolo[2,3-b]pyridine-2-carboxamide] | 1000 to 2500 nM | 2500 to 5000 nM | 1000 to 2500 nM
CNC(=O)c1cc2c(-c3cncc(-c4ccc(C(=O)N(C)C)cc4)c3)ccnc2o1 [Example 14, 4-(5-(4-(dimethylcarbamoyl)phenyl)pyridin-3-yl)-N-methylfuro[2,3-b]pyridine-2-carboxamide] | 100 to 1000 nM | 100 to 1000 nM | 100 to 1000 nM
CC(O)c1cnc2[nH]cc(-c3cncc(-c4ccc(C(=O)N(C)C)cc4)c3)c2c1 (centres unmarked) [Example 15, 4-(5-(5-(1-hydroxyethyl)-1H-pyrrolo[2,3-b]pyridin-3-yl)pyridin-3-yl)-N,N-dimethylbenzamide] | 5 to 100 nM | 100 to 1000 nM | 100 to 1000 nM
CN(C)C(=O)c1ccc(-c2cc(-c3ccnc4ccccc34)cnc2N)nc1 [Example 20, 2′-amino-N,N-dimethyl-5′-(quinolin-4-yl)-[2,3′-bipyridine]-5-carboxamide] | 100 to 1000 nM | 1000 to 2500 nM | 100 to 1000 nM
CN(C)C(=O)c1ccc(-c2cc(-c3ccnc4[nH]ccc34)cnc2N)nc1 [Example 21, 2′-amino-N,N-dimethyl-5′-(1H-pyrrolo[2,3-b]pyridin-4-yl)-[2,3′-bipyridine]-5-carboxamide] | 100 to 1000 nM | 100 to 1000 nM | 100 to 1000 nM
Nc1ncc(Br)cc1-c1ccc(N2CCCC2=O)cn1 [Example 22, 1-(2′-amino-5′-bromo-[2,3′-bipyridin]-5-yl)pyrrolidin-2-one] | < 5000 nM | > 5000 nM | > 5000 nM
Nc1ncc(-c2csc3ncccc23)cc1-c1ccc(N2CCCC2=O)cn1 [Example 23, 1-(2′-amino-5′-(thieno[2,3-b]pyridin-3-yl)-[2,3′-bipyridin]-5-yl)pyrrolidin-2-one] | 5 to 100 nM | 100 to 1000 nM | 100 to 1000 nM
Nc1ncc(-c2cccc3ncsc23)cc1-c1ccc(N2CCCC2=O)cn1 [Example 24, 1-(2′-amino-5′-(benzo[d]thiazol-7-yl)-[2,3′-bipyridin]-5-yl)pyrrolidin-2-one] | 100 to 1000 nM | 1000 to 2500 nM | 1000 to 2500 nM
Nc1ncc(-c2cccc3nccn23)cc1-c1ccc(N2CCCC2=O)cn1 [Example 25, 1-(2′-amino-5′-(imidazo[1,2-a]pyridin-5-yl)-[2,3′-bipyridin]-5-yl)pyrrolidin-2-one] | 1000 to 2500 nM | 2500 to 5000 nM | > 5000 nM
Nc1ncc(-c2c[nH]c3ncc(Cl)cc23)cc1-c1ccc(N2CCCC2=O)cn1 [Example 26, 1-(2′-amino-5′-(5-chloro-1H-pyrrolo[2,3-b]pyridin-3-yl)-[2,3′-bipyridin]-5-yl)pyrrolidin-2-one] | 5 to 100 nM | 10 to 100 nM | 100 to 1000 nM
Cc1cc(N2CCCC2=O)ccc1-c1cncc(-c2ccncc2)c1 [Example 81, 1-(4-([3,4′-bipyridin]-5-yl)-3-methylphenyl)pyrrolidin-2-one] | < 5000 nM | 1000 to 2500 nM | 
COCc1c(-c2ccncc2)cncc1-c1ccc(N2CCCC2=O)cc1 [Example 83, 1-(4-(4-(methoxymethyl)-[3,4′-bipyridin]-5-yl)phenyl)pyrrolidin-2-one] | 1000 to 2500 nM | > 5000 nM | 
COC(=O)c1c[nH]c2nccc(-c3cnc(N)c(-c4ccc(C(=O)N(C)C)cn4)c3)c12 [Example 114, methyl 4-(2′-amino-5-(dimethylcarbamoyl)-[2,3′-bipyridin]-5′-yl)-1H-pyrrolo[2,3-b]pyridine-3-carboxylate] | < 5000 nM | > 5000 nM | 
Cn1cc(-c2cncc(-c3ccc(N4CCCC4=O)cc3)c2)c2cncnc21 [Example 153, 1-(4-(5-(7-methyl-7H-pyrrolo[2,3-d]pyrimidin-5-yl)pyridin-3-yl)phenyl)pyrrolidin-2-one] | < 5000 nM | 10 to 100 nM | 
CC(O)c1cnc2c(c1)c(-c1cncc(-c3ccc(N4CCCC4=O)cc3)c1)c1n2CCC1 (centres unmarked) [Example 351, 1-(4-(5-(3-(1-hydroxyethyl)-7,8-dihydro-6H-pyrido[3,2-b]pyrrolizin-5-yl)pyridin-3-yl)phenyl)pyrrolidin-2-one] |  | 10 to 100 nM | 10 to 100 nM
O=C1CCCN1c1ccc(-c2cncc(-c3c4n(c5ncncc35)CCC4)c2)cc1 [Example 352, 1-(4-(5-(7,8-dihydro-6H-pyrimido[5,4-b]pyrrolizin-5-yl)pyridin-3-yl)phenyl)pyrrolidin-2-one] |  | 10 to 100 nM | 10 to 100 nM
O=C1CCCN1c1ccc(-c2cncc(-c3c4n(c5ncc(Br)cc35)CCC4)c2)cc1 [Example 353, 1-(4-(5-(3-bromo-7,8-dihydro-6H-pyrido[3,2-b]pyrrolizin-5-yl)pyridin-3-yl)phenyl)pyrrolidin-2-one] |  | 10 to 100 nM | 10 to 100 nM
